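Assay format: 96-well plates, 48-hour exposure. GI50 marks 50% less growth.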 Calls of active or inactive are those of the source. Rule as the data show it: active = GI50 up to about 1.1 µM and inactive = higher.
Columns and labels:
Experiment in all cases: NCI-60 cell line screen, 48 h
[1] = tested on: HT-29
[2] = tested on: HOP-92
[3] = tested on: MDA-MB-435
[4] = tested on: RPMI-8226
[5] = tested on: SK-MEL-5
[6] = tested on: SN12C
[7] = tested on: HCT-15
[8] = tested on: K562
[9] = tested on: EKVX
[10] = tested on: HCC 2998
[11] = tested on: NCI-H460
[12] = tested on: KM12
[13] = tested on: HL-60
[14] = tested on: MCF7
[15] = tested on: OVCAR-5
[16] = tested on: SNB-19
[17] = tested on: DU-145
[18] = tested on: HCT-116
[19] = tested on: CCRF-CEM
[20] = tested on: OVCAR-4
[21] = tested on: HOP-62
[22] = tested on: M14
[23] = tested on: OVCAR-3
[24] = tested on: SF-295
[25] = tested on: SF-539
[26] = tested on: ACHN
[27] = tested on: CAKI-1
[28] = tested on: RXF 393
[29] = tested on: IGROV-1
[30] = tested on: U-251
[31] = tested on: MOLT-4
[32] = tested on: NCI-H522
[33] = tested on: SNB-75
[34] = tested on: OVCAR-8
[35] = tested on: MDA-N
[36] = tested on: NCI-H226
[37] = tested on: PC-3
[38] = tested on: T47D
[39] = tested on: Hs-578T
[40] = tested on: SR
[41] = tested on: UACC-257
[42] = tested on: 786-0
[43] = tested on: SK-MEL-2
[44] = tested on: LOX IMVI
[45] = tested on: NCI/ADR-RES
[46] = tested on: SF-268
[47] = tested on: MDA-MB-231
[48] = tested on: SW-620
[49] = tested on: BT-549
[50] = tested on: COLO 205
[51] = tested on: UACC-62
[52] = tested on: TK-10
[53] = tested on: NCI-H23
[54] = tested on: A549
[55] = tested on: Malme-3M
[56] = tested on: SK-OV-3

Cc1nn(C(=O)c2ccc(Cl)cc2)c2c1C(c1ccccc1[N+](=O)[O-])SC(=N)N2 (stereo unspecified)
GI50 [1]: > 10 µM (inactive) | GI50 [2]: > 10 µM (inactive) | GI50 [3]: > 10 µM (inactive) | GI50 [4]: > 10 µM (inactive) | GI50 [5]: > 10 µM (inactive) | GI50 [6]: > 10 µM (inactive) | GI50 [7]: > 10 µM | GI50 [8]: > 10 µM (inactive) | GI50 [9]: > 10 µM (inactive) | GI50 [10]: > 10 µM (inactive) | GI50 [11]: > 10 µM (inactive) | GI50 [12]: > 10 µM (inactive) | GI50 [13]: > 10 µM (inactive) | GI50 [14]: > 10 µM (inactive) | GI50 [15]: > 10 µM (inactive) | GI50 [16]: > 10 µM (inactive) | GI50 [17]: > 10 µM (inactive) | GI50 [18]: > 10 µM (inactive) | GI50 [19]: > 10 µM (inactive) | GI50 [20]: > 10 µM (inactive) | GI50 [21]: > 10 µM (inactive) | GI50 [22]: > 10 µM (inactive) | GI50 [23]: > 10 µM (inactive) | GI50 [24]: > 10 µM (inactive) | GI50 [25]: > 10 µM (inactive) | GI50 [26]: > 10 µM (inactive) | GI50 [27]: > 10 µM (inactive) | GI50 [28]: 0.569 µM (active) | GI50 [29]: > 10 µM (inactive) | GI50 [30]: > 10 µM (inactive) | GI50 [31]: > 10 µM (inactive) | GI50 [32]: > 10 µM (inactive) | GI50 [33]: > 10 µM (inactive) | GI50 [34]: > 10 µM (inactive) | GI50 [35]: > 10 µM (inactive) | GI50 [36]: > 10 µM (inactive) | GI50 [37]: > 10 µM (inactive) | GI50 [38]: > 10 µM (inactive) | GI50 [39]: > 10 µM (inactive) | GI50 [40]: > 10 µM (inactive) | GI50 [41]: > 10 µM (inactive) | GI50 [42]: > 10 µM (inactive) | GI50 [43]: > 10 µM (inactive) | GI50 [44]: > 10 µM (inactive) | GI50 [45]: > 10 µM (inactive) | GI50 [46]: > 10 µM (inactive) | GI50 [47]: > 10 µM (inactive) | GI50 [48]: > 10 µM (inactive) | GI50 [49]: > 10 µM (inactive) | GI50 [50]: > 10 µM (inactive) | GI50 [51]: > 10 µM (inactive) | GI50 [52]: > 10 µM (inactive) | GI50 [53]: > 10 µM (inactive) | GI50 [54]: > 10 µM (inactive) | GI50 [55]: > 10 µM (inactive) | GI50 [56]: > 10 µM (inactive)
